ChEMBL document CHEMBL1817623, “Sesterterpenes from the tropical sponge Coscinoderma sp” (J Nat Prod, 2011)
Converted amounts (≈) assume the structure as drawn.

Assays:
Isocitrate lyase = Isocitrate lyase (Candida albicans, UniProt Q9P8Q7); assay: Inhibition of Candida albicans isocitrate lyase
Bacillus subtilis = assay: Antimicrobial activity against Bacillus subtilis ATCC 6633; format: functional
[1] = biological target: Sodium/potassium-transporting ATPase; assay: Inhibition of human Na(+)/K(+) ATPase assessed as reduction in ouabain-sensitive and K(+)-dependent cleavage of fluorescent pseudosubstrate 3-O-methylfluorescein phosphate by fluorometric method; format: protein-complex assay
Proteus vulgaris = assay: Antimicrobial activity against Proteus vulgaris ATCC 3851; format: functional
Sortase A = biological target: T1, Sortase A (Staphylococcus aureus, UniProt Q9S446); assay: Inhibition of recombinant Staphylococcus aureus ATCC 6538p sortase lacking the N-terminal membrane anchor domain expressed in Escherichia coli cells TOP10 using Dabcyl-QALPETGEE-Edans substrate measured after 1 hr by fluorescence S13 spectrophotometry
T1 sequence (Q9S446 whole entry): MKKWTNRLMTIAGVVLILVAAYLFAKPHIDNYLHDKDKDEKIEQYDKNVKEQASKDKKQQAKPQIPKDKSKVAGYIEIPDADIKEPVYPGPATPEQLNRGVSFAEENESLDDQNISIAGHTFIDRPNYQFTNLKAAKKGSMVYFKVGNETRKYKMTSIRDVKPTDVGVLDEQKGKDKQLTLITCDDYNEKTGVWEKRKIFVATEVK

Aspergillus fumigatus = assay: Antimicrobial activity against Aspergillus fumigatus HIC 6094; format: functional
Salmonella typhimurium = assay: Antimicrobial activity against Salmonella Typhimurium ATCC 14028; format: functional, Salmonella enterica subsp. enterica serovar Typhimurium; details: Salmonella enterica
Trichophyton rubrum = assay: Antimicrobial activity against Trichophyton rubrum IFO 9185; format: functional
Staphylococcus aureus = assay: Antimicrobial activity against Staphylococcus aureus ATCC 6538p; format: functional
[2] = test system: Trichophyton mentagrophytes; assay: Antimicrobial activity against Trichophyton mentagrophytes IFO 40996; format: functional
Escherichia coli = assay: Antimicrobial activity against Escherichia coli ATCC 35270; format: functional
K562 = assay: Cytotoxicity against human K562 cells; format: functional; details: read-out: LC50 (the source's name)
Micrococcus luteus = assay: Antimicrobial activity against Micrococcus luteus IFO 12708; format: functional
Candida albicans = assay: Antimicrobial activity against Candida albicans ATCC 10231; format: functional

Isocitrate lyase, sequence (Q9P8Q7 whole entry): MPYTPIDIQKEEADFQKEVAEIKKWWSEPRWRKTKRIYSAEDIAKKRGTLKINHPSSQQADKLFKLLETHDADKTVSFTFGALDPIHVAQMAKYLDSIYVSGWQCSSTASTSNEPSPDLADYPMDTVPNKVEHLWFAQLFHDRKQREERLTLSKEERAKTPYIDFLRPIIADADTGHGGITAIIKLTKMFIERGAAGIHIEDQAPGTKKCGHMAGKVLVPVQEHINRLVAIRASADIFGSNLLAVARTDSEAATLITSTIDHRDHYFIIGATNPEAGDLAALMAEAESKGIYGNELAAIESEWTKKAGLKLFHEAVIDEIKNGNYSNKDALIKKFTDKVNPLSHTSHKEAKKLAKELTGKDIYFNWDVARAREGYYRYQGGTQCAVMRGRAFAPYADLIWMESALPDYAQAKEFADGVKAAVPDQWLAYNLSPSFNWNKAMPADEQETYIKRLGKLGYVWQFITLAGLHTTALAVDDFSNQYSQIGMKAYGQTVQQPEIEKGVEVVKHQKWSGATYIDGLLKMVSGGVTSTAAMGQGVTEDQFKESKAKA

SMILES	IC50 (Isocitrate lyase) [µM]	MIC (Bacillus subtilis) [µg/mL]	IC50 [1] [µM]	MIC (Proteus vulgaris) [µg/mL]	IC50 (Sortase A) [µM]	MIC (Aspergillus fumigatus) [µg/mL]	MIC (Salmonella typhimurium) [µg/mL]	MIC (Trichophyton rubrum) [µg/mL]	MIC (Staphylococcus aureus) [µg/mL]	MIC [2] [µg/mL]	MIC (Escherichia coli) [µg/mL]	CC50 (K562) [µM]	MIC (Micrococcus luteus) [µg/mL]	MIC (Candida albicans) [µg/mL]
CC1=CC[C@H]2C(C)(C)CCC[C@]2(C)[C@H]1C/C=C(\C)CCC/C(C)=C/Cc1cc(O)ccc1O	> 200	> 100	117	> 100	> 200	> 100	> 100	> 100	> 100	> 100	> 100	8	> 100	> 100
CO[C@@H]1C=C(CC[C@H]2/C(=C/OS(=O)(=O)[O-])CC[C@H]3[C@]2(C)CC[C@H]2C(C)(C)CCC[C@]32C)C(=O)O1.[Na+]	64	> 100	6	> 100	> 200	> 100	> 100	> 100	> 100	> 100	> 100	16	> 100	> 100
CC1=CC[C@H]2C(C)(C)CCC[C@]2(C)[C@H]1C[C@@H](OS(=O)(=O)[O-])[C@H](C)CCC/C(C)=C\Cc1cc(O)ccc1O.[Na+]	52	> 100	5	> 100	100	> 100	> 100	> 100	> 100	> 100	> 100	> 200	> 100	> 100
CC1=CCC[C@@H](C)[C@]1(C)CC/C(C)=C/CCC(CCCc1ccoc1)COS(=O)(=O)[O-].[Na+] (stereo partly drawn) [HALISULFATE 2]	24	6.25	5	25	> 200	> 100	> 100	> 100	> 100	> 100	> 100	> 200	> 100	> 100
CC1(C)CCC[C@]2(C)[C@H]3CC/C(=C\OS(=O)(=O)[O-])[C@H](CCC4=CC(=O)O[C@@H]4O)[C@@]3(C)CC[C@@H]12.[Na+]		> 100	5	> 100	> 200	> 100	> 100	> 100	> 100	> 100	> 100	59	> 100	> 100
CC1(C)S[C@@H]2[C@H](NC(=O)[C@H](N)c3ccccc3)C(=O)N2[C@H]1C(=O)O [AMPICILLIN]		0.39 (≈ 1.12 µM)		0.39 (≈ 1.12 µM)			0.39 (≈ 1.12 µM)		1.56 (≈ 4.46 µM)		6.25 (≈ 17.9 µM)		0.39 (≈ 1.12 µM)	
CC1(C)CCC[C@]2(C)[C@H]3CC/C(=C\OS(=O)(=O)[O-])[C@H](CCC4=CCNC4=O)[C@@]3(C)CC[C@@H]12.[Na+]	62	> 100	18	> 100	> 200	> 100	> 100	> 100	> 100	> 100	> 100	22	> 100	> 100
CC1=CC[C@H]2C(C)(C)CCC[C@]2(C)[C@H]1C/C=C(/C)CCC/C(C)=C/Cc1cc(O)ccc1O [COSCINOQUINOL]	> 200	3.25 (≈ 7.21 µM)	44	6.25 (≈ 13.9 µM)	> 200	> 100	25 (≈ 55.5 µM)	> 100	> 100	> 100	> 100	8	25 (≈ 55.5 µM)	> 100
CO[C@@H]1O[C@H](OC)[C@](O)(CC[C@H]2/C(=C/OS(=O)(=O)[O-])CC[C@H]3[C@]2(C)CC[C@H]2C(C)(C)CCC[C@]32C)[C@H]1O.[Na+]	75	> 100	6	> 100	> 200	> 100	> 100	> 100	> 100	> 100	> 100	15	> 100	> 100
CO[C@H]1C=C(CC[C@H]2/C(=C/OS(=O)(=O)[O-])CC[C@H]3[C@]2(C)CC[C@H]2C(C)(C)CCC[C@]32C)C(=O)O1.[Na+]	165	> 100	17	> 100	> 200	> 100	> 100	> 100	> 100	> 100	> 100	45	> 100	> 100
COc1cccc2c1C(=O)c1c(O)c3c(c(O)c1C2=O)C[C@@](O)(C(=O)CO)C[C@@H]3O[C@H]1C[C@H](N)[C@H](O)[C@H](C)O1 [DOXORUBICIN]												13		
CC1(C)CCC[C@]2(C)[C@H]3CC/C(=C\OS(=O)(=O)[O-])[C@H](CCc4ccoc4)[C@@]3(C)CC[C@@H]12.C[N+](C)=C(N)N [SUVANINE]	17	1.56	8	> 100	> 200	> 100	50	> 100	100	> 100	> 100	> 200	> 100	> 100
CC1=CC[C@H]2C(C)(C)CCC[C@]2(C)[C@H]1C[C@@H](OS(=O)(=O)[O-])[C@H](C)CCC/C(C)=C/Cc1cc(O)ccc1O.[Na+] [HALISULFATE 1]	19	3.13	3		36	> 100		> 100	50	> 100	> 100	> 200		> 100
CO[C@H]1C=C(CC[C@H]2/C(=C/OS(=O)(=O)[O-])CC[C@H]3[C@]2(C)CC[C@H]2C(C)(C)CCC[C@]32C)[C@@H](OC)O1.[Na+]	87	> 100	14	> 100	> 200	> 100	> 100	> 100	> 100	> 100	> 100	49	> 100	> 100
C=C1CC[C@H]2C(C)(C)CCC[C@]2(C)[C@H]1C[C@@H](OS(=O)(=O)[O-])[C@H](C)CCC/C(C)=C/Cc1cc(O)ccc1O.[Na+]	45		4		98	> 100		> 100		> 100	> 100	> 200		> 100
C[C@@H]1[C@H](O)[C@@H](C)/C=C/C=C/C=C/C=C/C=C/C=C/C=C/[C@H](O[C@@H]2O[C@H](C)[C@@H](O)[C@H](N)[C@@H]2O)C[C@@H]2O[C@](O)(C[C@@H](O)C[C@@H](O)[C@H](O)CC[C@@H](O)C[C@@H](O)CC(=O)O[C@H]1C)C[C@H](O)[C@H]2C(=O)O [AMPHOTERICIN B]						3.13 (≈ 3.39 µM)		3.13 (≈ 3.39 µM)		3.13 (≈ 3.39 µM)				0.78 (≈ 0.844 µM)
CC1(C)CCC[C@]2(C)[C@H]3CC/C(=C\OS(=O)(=O)[O-])[C@H](CCc4ccoc4)[C@@]3(C)CC[C@@H]12.[Na+] [SUVANINE'S SODIUM SALT]	5	1.56	9	25	> 200	> 100	50	> 100	25	> 100	> 100	16	25	> 100
O=C(O)CC[N+](=O)[O-]	9													
CC1(C)CCC[C@]2(C)[C@H]3CC/C(=C\OS(=O)(=O)[O-])[C@H](CCC4=CC(=O)OC4)[C@@]3(C)CC[C@@H]12.[Na+]	150	> 100	19	> 100	> 200	> 100	> 100	> 100	> 100	> 100	> 100	56	> 100	> 100
